How the values were obtained:
Aspergillus brasiliensis = test: Antimicrobial preservative efficacy test (dilution neutralization), preservative as WFI solution; format: cell-based
Source text: (§1) Preservatives are commonly used in multi-dose formulations, including animal vaccines, to prevent bacterial or fungal growth in field conditions and are employed to minimize contamination of the formulations during repeated (non-sterile) punctures into the vial. Preservatives must pass antimicrobial effectiveness testing (AET), as described in the US pharmacopeia. As disclosed herein, Applicants performed the antimicrobial tests according to United States Pharmacopeia (USP), British Pharmacopeia (BP), and European Pharmocopeia (EP). Four test organisms were used: Candida albicans, Pseudomonas aeruginosa, Staphylococcus aureus, and A. brasiliensis. And while thimerosal and formol continue to play an important role in veterinary vaccines, European authorities encourage the development of vaccines that are free from those compounds.
(§2) For each concentration of polyamide polymer, dilution neutralization was carried out by inoculating 10 mL of test product with 100 μL of each test strain. Countings were performed at Do, 6 h (bacteria only), 24 h (bacteria only), D7, D14 and D28. For each counting, 1 mL of the sample was neutralized in 9 mL of neutralizing solution (10 minutes), for S. aureus, a second 1:10 dilution in the same solution. Then 1 mL of the mixture was transferred in Petri dishes and covered with 15 mL of agar medium (Trypcase Soy Agar for bacteria and Sabouraud Dextrosed Agar for yeasts and molds). The countings were achieved after 24-48 hours incubation at 32.5° C.±2.5° C. for bacteria, and 48-72 hours at 22.5° C.[…] for yeasts and molds. The test micro-organisms included Staphylococcus aureus, Pseudomonas aeruginosa, Candida albicans and Aspergillus brasiliensis. Finally, the neutralization solution contained: Tween 80 (10%), lecithin (2%), saponin (2%), sodium thiosulfate (0.5%) and buffered solution chloride. The saponin was from the bark of Quillaja saponaria.
(§3) For each concentration of octenidine, dilution neutralization was carried out as disclosed in Example 1.

Candida albicans = test: as above; format: cell-based
Source text: as §1, §2, §3

Staphylococcus aureus = test: as above; format: cell-based
Source text: as §1, §2, §3

Solubility in buffer = format: physicochemical
Protocol: In some embodiments, buffered solutions containing relatively lower amounts of salts, particularly including phosphate salts, are added to the immunogenic composition, or other preserved multi-dose formulation, to improve the solubility of the octenidine. This is based on Applicants' unexpected discovery that octenidine is less soluble in routinely used phosphate buffered saline (PBS). […] As such, in some embodiments, multi-dose formulations including octenidine contain less phosphate than standard PBS. Accordingly, in some embodiments, the buffer may contain for 100 L about 5 g of NaH2PO4 and about 200 g of Sodium bicarbonate (instead of standard PBS, which contains about a 20:1 ratio of Na2HPO4 to KH2PO4).

panel of pathogens = conditions: cited from earlier work
wound healing = conditions: cited from earlier work

In the case of CCCCCCCCN=c1ccn(CCCCCCCCCCn2ccc(=NCCCCCCCC)cc2)cc1.Cl.Cl [Octenidine Dihydrochloride, Octenidine dihydrochloride], the log reduction (Aspergillus brasiliensis; 0.001 mg/mL, 7 d) was 0 log, the viable count (Aspergillus brasiliensis; 0.001 mg/mL, 7 d) was 1.7 × 10^5 and the log reduction (Aspergillus brasiliensis; 0.001 mg/mL, 14 d) was 0.1 log. The viable count (Aspergillus brasiliensis; 0.001 mg/mL, 14 d) was 1.4 × 10^5, the log reduction (Aspergillus brasiliensis; 0.001 mg/mL, 28 d) was 0.3 log and the viable count (Aspergillus brasiliensis; 0.001 mg/mL, 28 d) was 1.0 × 10^5. For the same molecule, the viable count (Aspergillus brasiliensis; 0.001 mg/mL, T0) was 2.4 × 10^5, the log reduction (Aspergillus brasiliensis; 0.01 mg/mL, 7 d) was 0.7 log and the viable count (Aspergillus brasiliensis; 0.01 mg/mL, 7 d) was 3.8 × 10^4. For the same molecule, the log reduction (Aspergillus brasiliensis; 0.01 mg/mL, 14 d) was 0.8 log, the viable count (Aspergillus brasiliensis; 0.01 mg/mL, 14 d) was 3.2 × 10^4 and the log reduction (Aspergillus brasiliensis; 0.01 mg/mL, 28 d) was 0.8 log. For the same molecule, the viable count (Aspergillus brasiliensis; 0.01 mg/mL, T0) was 2.8 × 10^5, the log reduction (Aspergillus brasiliensis; 0.1 mg/mL, 7 d) was 0.4 log and the viable count (Aspergillus brasiliensis; 0.1 mg/mL, 7 d) was 7.5 × 10^4. For the same molecule, the log reduction (Aspergillus brasiliensis; 0.1 mg/mL, 14 d) was 1.3 log, the viable count (Aspergillus brasiliensis; 0.1 mg/mL, 14 d) was 1.0 × 10^4 and the log reduction (Aspergillus brasiliensis; 0.1 mg/mL, 28 d) was 0.8 log. The viable count (Aspergillus brasiliensis; 0.1 mg/mL, 28 d) was 2.8 × 10^4, the viable count (Aspergillus brasiliensis; 0.1 mg/mL, T0) was 1.7 × 10^5 and the log reduction (Aspergillus brasiliensis; 1 mg/mL, 7 d) was 0.8 log. The viable count (Aspergillus brasiliensis; 1 mg/mL, 7 d) was 2.9 × 10^4, the log reduction (Aspergillus brasiliensis; 1 mg/mL, 14 d) was 1 log and the viable count (Aspergillus brasiliensis; 1 mg/mL, 14 d) was 1.7 × 10^4. The log reduction (Aspergillus brasiliensis; 1 mg/mL, 28 d) was 1.1 log, the viable count (Aspergillus brasiliensis; 1 mg/mL, 28 d) was 1.4 × 10^4 and the viable count (Aspergillus brasiliensis; 1 mg/mL, T0) was 1.6 × 10^5. For the same molecule, the log reduction (Candida albicans; 0.001 mg/mL, 7 d) was 4 log, the viable count (Candida albicans; 0.001 mg/mL, 7 d) was 20 and the log reduction (Candida albicans; 0.001 mg/mL, 14 d) was 4.3 log. For the same molecule, the viable count (Candida albicans; 0.001 mg/mL, 14 d) was 10, the log reduction (Candida albicans; 0.001 mg/mL, 28 d) was >4.3 log and the viable count (Candida albicans; 0.001 mg/mL, 28 d) was <10. For the same molecule, the viable count (Candida albicans; 0.001 mg/mL, T0) was 1.7 × 10^5, the log reduction (Candida albicans; 0.01 mg/mL, 7 d) was >4.3 log and the viable count (Candida albicans; 0.01 mg/mL, 7 d) was <10. For the same molecule, the log reduction (Candida albicans; 0.01 mg/mL, 14 d) was >4.3 log, the viable count (Candida albicans; 0.01 mg/mL, 14 d) was <10 and the log reduction (Candida albicans; 0.01 mg/mL, 28 d) was >4.3 log. For the same molecule, the viable count (Candida albicans; 0.01 mg/mL, 28 d) was <10, the viable count (Candida albicans; 0.01 mg/mL, T0) was 2 × 10^3 and the log reduction (Candida albicans; 0.1 mg/mL, 7 d) was >4.3 log. The viable count (Candida albicans; 0.1 mg/mL, 7 d) was <10, the log reduction (Candida albicans; 0.1 mg/mL, 14 d) was >4.3 log and the viable count (Candida albicans; 0.1 mg/mL, 14 d) was <10. For the same molecule, the log reduction (Candida albicans; 0.1 mg/mL, 28 d) was >4.3 log, the viable count (Candida albicans; 0.1 mg/mL, 28 d) was <10 and the viable count (Candida albicans; 0.1 mg/mL, T0) was <10. The log reduction (Candida albicans; 1 mg/mL, 7 d) was >4.3 log, the viable count (Candida albicans; 1 mg/mL, 7 d) was <10 and the log reduction (Candida albicans; 1 mg/mL, 14 d) was >4.3 log. For the same molecule, the viable count (Candida albicans; 1 mg/mL, 14 d) was <10, the log reduction (Candida albicans; 1 mg/mL, 28 d) was >4.3 log and the viable count (Candida albicans; 1 mg/mL, 28 d) was <10. For the same molecule, the viable count (Candida albicans; 1 mg/mL, T0) was <10, the log reduction (Staphylococcus aureus; 0.001 mg/mL, 6 h) was 3.8 log and the viable count (Staphylococcus aureus; 0.001 mg/mL, 6 h) was 1.6 × 10^2. The log reduction (Staphylococcus aureus; 0.001 mg/mL, 24 h) was >5 log, the viable count (Staphylococcus aureus; 0.001 mg/mL, 24 h) was <10 and the log reduction (Staphylococcus aureus; 0.001 mg/mL, 7 d) was 3.7 log. The viable count (Staphylococcus aureus; 0.001 mg/mL, 7 d) was 2 × 10^2, the log reduction (Staphylococcus aureus; 0.001 mg/mL, 14 d) was 3.9 log and the viable count (Staphylococcus aureus; 0.001 mg/mL, 14 d) was 1.4 × 10^2. The log reduction (Staphylococcus aureus; 0.001 mg/mL, 28 d) was 4.4 log, the viable count (Staphylococcus aureus; 0.001 mg/mL, 28 d) was 40 and the viable count (Staphylococcus aureus; 0.001 mg/mL, T0) was 1.6 × 10^5. The log reduction (Staphylococcus aureus; 0.01 mg/mL, 6 h) was >5 log, the viable count (Staphylococcus aureus; 0.01 mg/mL, 6 h) was <10 and the log reduction (Staphylococcus aureus; 0.01 mg/mL, 24 h) was >5 log. For the same molecule, the viable count (Staphylococcus aureus; 0.01 mg/mL, 24 h) was <10, the log reduction (Staphylococcus aureus; 0.01 mg/mL, 7 d) was >5 log and the viable count (Staphylococcus aureus; 0.01 mg/mL, 7 d) was <10. The log reduction (Staphylococcus aureus; 0.01 mg/mL, 14 d) was >5 log, the viable count (Staphylococcus aureus; 0.01 mg/mL, 14 d) was <10 and the log reduction (Staphylococcus aureus; 0.01 mg/mL, 28 d) was >5 log. For the same molecule, the viable count (Staphylococcus aureus; 0.01 mg/mL, 28 d) was <10, the viable count (Staphylococcus aureus; 0.01 mg/mL, T0) was 10 and the log reduction (Staphylococcus aureus; 0.1 mg/mL, 6 h) was >5 log. The viable count (Staphylococcus aureus; 0.1 mg/mL, 6 h) was <10^2, the log reduction (Staphylococcus aureus; 0.1 mg/mL, 24 h) was >5 log and the viable count (Staphylococcus aureus; 0.1 mg/mL, 24 h) was <10^2. The log reduction (Staphylococcus aureus; 0.1 mg/mL, 7 d) was >5 log, the viable count (Staphylococcus aureus; 0.1 mg/mL, 7 d) was <10^2 and the log reduction (Staphylococcus aureus; 0.1 mg/mL, 14 d) was >5 log. The viable count (Staphylococcus aureus; 0.1 mg/mL, 14 d) was <10^2, the log reduction (Staphylococcus aureus; 0.1 mg/mL, 28 d) was >5 log and the viable count (Staphylococcus aureus; 0.1 mg/mL, 28 d) was <10^2. The viable count (Staphylococcus aureus; 0.1 mg/mL, T0) was <10, the log reduction (Staphylococcus aureus; 1 mg/mL, 6 h) was >4 log and the viable count (Staphylococcus aureus; 1 mg/mL, 6 h) was <10^2. The log reduction (Staphylococcus aureus; 1 mg/mL, 24 h) was >4 log, the viable count (Staphylococcus aureus; 1 mg/mL, 24 h) was <10^2 and the log reduction (Staphylococcus aureus; 1 mg/mL, 7 d) was >4 log. The viable count (Staphylococcus aureus; 1 mg/mL, 7 d) was <10^2, the log reduction (Staphylococcus aureus; 1 mg/mL, 14 d) was >4 log and the viable count (Staphylococcus aureus; 1 mg/mL, 14 d) was <10^2. For the same molecule, the log reduction (Staphylococcus aureus; 1 mg/mL, 28 d) was >4 log, the viable count (Staphylococcus aureus; 1 mg/mL, 28 d) was <10^2 and the viable count (Staphylococcus aureus; 1 mg/mL, T0) was <10^2. For the same molecule, the solubility (Solubility in buffer; routinely used phosphate buffered saline (PBS)) was “less soluble”, the solubility (Solubility in buffer; sodium phosphate replaced with sodium bicarbonate) was “provided the required solubility” and the “Efficacy: spectrum” value (panel of pathogens) was “Broad spectrum”. The MIC (panel of pathogens) was “MIC ≤1 μg/ml” and the “Cytotoxicity data: demonstrate any adverse effect to wound healing” value (wound healing) was “Cytotoxicity data failed to”.

From patent US10583154B2, “Multi-dose compositions containing an antimicrobial polyamide or octenidine preservative” (priority 2016, dated 2020)
